From US9745280B2, “Compound or pharmaceutically acceptable salt thereof, and pharmaceutical composition containing same as active ingredient” (SNU R&DB FOUNDATION, priority 2012, dated 2017)
pIC50: −log10 of the molar value.

Assays:
[1] = test system: H1299 NSCLC (non-small cell lung cancer) cells; assay: Cancer cell growth inhibition (MTS); format: cell-based; settings: Homo sapiens
Protocol: To investigate the inhibitory effect of the compounds of Examples of the present invention on cancer cell growth, the following experiment was performed. Particularly, H1299 NSCLC (non-small cell lung cancer) cells were distributed in a 96-well plate at the density of 5×10^3 cells/well, followed by culture in a 37° C., 5% CO2 incubator for 24 hours. The compound of each example was dissolved in DMSO (10 nM, 100 nM, 1 μM, 10 μM), which was treated to each well. 48 hours later, cell growth was measured by using MTS reagent (3-(4,5-dimethylthiazole-2-yl)-5-(3-carboxymethoxyphenyl)-2-(4-sulfophenyl)-2H-tetrazolium). The experiment was performed in triplicate and the standard error of the analysis result was corrected.

[2] = test system: human umbilical vein endothelial cells (HUVECs); assay: Vascular endothelial cell proliferation, [3H]-thymidine incorporation, conditioned media of hypoxic HCT116; format: cell-based; settings: conditioned media of HCT116 treated at 1˜100 nM under hypoxia; HUVECs 18 hours
Protocol: (§1) First, HCT116, the human colorectal cancer cell line, was cultured in a hypoxic chamber (1% O2) as the in vitro hypoxic model. The cells were treated with deguelin, compound 69 (Example 33) and compound 54 (Example 28) at the concentrations of 1˜100 nM, followed by culture for 8 hours. Next, the culture fluid was collected and proceeded to centrifugation at 4° C. for 10 minutes (6,000×g). Cell culture fluid was obtained from the supernatant (conditioned media (CM)). The obtained cell culture fluid was treated to human umbilical vein endothelial cells (HUVECs) which were cultured separately. Then changes of angiogenesis were investigated by the following experiments.
The cell culture fluid prepared in the above preparation stage was treated to umbilical vein endothelial cells (HUVECs) for 18 hours. Cell proliferation was confirmed by [^3H]-thymidine incorporation assay.

[3] = test system: HIF-1α; assay: HIF-1α inhibitory activity, hypoxia-response element-luciferase in HRE-A549 cells; format: cell-based; settings: HRE-A549 cells, hypoxia-chamber 24 h, luciferase activity
Protocol: HRE-A549 cells stably transfected with hypoxia-response element-luciferase construct were incubated in Dulbecco's modified Eagle's medium. Following overnight serum deprivation, the cells were treated with or without Deguelin or example compounds. After 1 h incubation, the cells were incubated in hypoxia-chamber for 24 h at 37° C. Luciferase activity was measured by adding luciferase assay reagent (Promega, Madison, Wis.).

[4] = test system: lung cancer cells with or without anticancer drug resistance; assay: Anchorage-dependent colony formation assay; format: cell-based; settings: increasing concentrations, 2 weeks
Source text: (§2) H1299, H460, H292, and BEAS-2B cells were purchased from the ATCC. The other NSCLC cells were kindly provided by Dr. John V. Heymach (MD Anderson Cancer Center, Houston, Tex.). HUVECs were purchased from Invitrogen. Human bronchial epithelial (HBE) cells were kindly provided by Dr. John Minna (The University of Texas Southwestern Medical Center, Dallas, Tex.). Human retinal pigment epithelial (RPE) cells were kindly provided by Dr. Jeong Hun Kim (College of Medicine, Seoul National University, Seoul, Republic of Korea). HT-22 cells were provided by Dr. Dong Gyu Jo (College of Pharmacy, Sungkyunkwan University, Suwon, Republic of Korea). Cell lines were authenticated and validated at the Korean Cell Line Bank using AmplFLSTR identifier PCR Amplification Kit (Applied Biosystems; cat. No. 4322288) in 2013. Cells passed for fewer than 6 months after receipt or resuscitation of validated cells were used in this study.
HT-22 and RPE cells were cultured in DMEM supplemented with 10% fetal bovine serum (FBS) and antibiotics. Other cancer cells were cultured in RPMI 1640 medium supplemented with 10% FBS and antibiotics. […]
For the anchorage-dependent colony formation assay, cells were seeded onto 6-well plates at a density of 300 cells/well and then treated with increasing concentrations of example 28 compound (“SH” in FIG. 11) for 2 weeks. […] The colonies were photographed and counted.

[5] = test system: lung cancer cells with or without anticancer drug resistance; assay: Anchorage-independent (soft agar) colony formation assay; format: cell-based; settings: 2 weeks
Source text: as §2
HT-22 and RPE cells were cultured in DMEM supplemented with 10% fetal bovine serum (FBS) and antibiotics. […]
For the anchorage-independent colony formation assay, the cells were mixed with sterile 1% agar solution (final concentration of 0.4%) and then poured onto 1% base agar in 24-well plates. […] After incubation, the colonies were stained with MTT solution and then photographed and counted.

[6] = test system: HUVECs; assay: HUVEC tube formation with conditioned medium from treated H1299 cells; format: cell-based; settings: CM from H1299 cells treated under normoxic or hypoxic conditions
Protocol: H1299 cells were treated with example 28 compound (“SH” in FIG. 13) or deguelin for 1 d and then further incubated under normoxic or hypoxic conditions for 4 h. After incubation, the drug-containing medium was discarded and fresh serum-free medium was added to cell and further incubated for 24 h. After incubation, the conditioned medium (CM) was collected.
Briefly, the HUVECs were diluted in complete medium and seeded onto CellBIND surface 96-well plates (Corning). The cells were treated with the CM. The morphological changes of the HUVECs were photographed and scored.

[7] = test system: hippocampal cells (HT-22); format: cell-based
Source text: (§3) We examined toxicity of example 28 compound at the cellular levels by testing the effects of example 28 compound on the viability of several normal cells, including human normal lung epithelial cells (HBE and BEAS-2B; FIG. 14), hippocampal cells (HT-22; FIG. 15), retinal pigment epithelial cells (FIG. 16), and vascular endothelial cells (HUVEC; FIG. 17).

[8] = test system: human normal lung epithelial cells (HBE and BEAS-2B); format: cell-based
Source text: as §3

[9] = test system: vascular endothelial cells (HUVEC); format: cell-based
Source text: as §3

[10] = test system: retinal pigment epithelial cells; format: cell-based, human
Source text: as §3

[11] = Body weight of treated rats; format: in vivo
[12] = test system: human umbilical vein endothelial cells (HUVECs); assay: Vascular endothelial cell migration, trans-well, conditioned media of hypoxic HCT116; format: cell-based; settings: cell culture fluid treated at 100 nM; 4 hours
Protocol: as §1
The cell culture fluid obtained in the above preparation stage was loaded in the lower chamber of trans-well plate (6.5 mm diameter filter) and umbilical vein endothelial cells (HUVECs) were plated carefully in the upper chamber, followed by culture at 37° C. for 4 hours. The cells migrated down the filter were confirmed by H&E staining.

[13] = test system: human umbilical vein endothelial cells (HUVECs); assay: Vascular endothelial cell tube formation, conditioned media of hypoxic HCT116; format: cell-based; settings: conditioned media of treated HCT116; 30 hours
Protocol: as §1
Umbilical vein endothelial cells (HUVECs) were treated with the cell culture fluid obtained in the above preparation stage. 30 hours later, tube formation was observed. As a result, tube formation was induced by the control deguelin and the compounds of the present invention.

[14] = test system: human bronchial epithelial cells (HBEC-1 and BEAS-2B); assay: Cytotoxicity to normal cells (MTT); format: cell-based; settings: 3 days
Protocol: To investigate the cytotoxicity of the control deguelin, the compound 69 (Example 33), and the compound 54 (Example 28) to the normal cells, it was examined how these compounds affect the proliferation of human bronchial epithelial cells (HBEC-1 and BEAS-2B).
Particularly, HBEC-1 and BEAS-2B cells were seeded on a 96-well culture plate (5,000 cells/well), followed by culture for 24 hours. The plate was treated with 0.1% DMSO (comparative control (CT)), 1 μM of deguelin (control), or […] of the compound 69 (Example 33) and the compound 54 (Example 28) (experimental group), followed by further culture for 3 days. Cytotoxicity was evaluated by MTT assay.

[15] = previous study; decreased tyrosine hydroxylase immunoreactivity; cited from earlier work

## COc1ccc(CC(=O)c2ccc3c(c2OC)C=CC(C)(C)O3)cc1OC [Example 28, 2-(3,4-Dimethoxyphenyl)-1-(5-methoxy-2,2-dimethyl-2H-chromen-6-yl)ethanone]
[1]; NCI-H1299, 48 hours, MTS reagent
  pIC50: 6.85
[2]
  proliferation of vascular endothelial cells: inhibited the proliferation of vascular endothelial cells dose-dependently
[3]
  pIC50: 5.67
[4]
  anchorage-dependent colony formation: remarkably superior anticancer effect
[5]
  anchorage-independent colony formation: remarkably superior anticancer effect
[6]
  tube formation of HUVECs: formed significantly fewer tubes
[7]
  cytotoxicity compared with deguelin: significantly reduced cytotoxicity
[8]
  cytotoxicity compared with deguelin: significantly reduced cytotoxicity
[9]
  cytotoxicity compared with deguelin: significantly reduced cytotoxicity
[10]
  cytotoxicity compared with deguelin: significantly reduced cytotoxicity
[11]; rat, in vivo
  body weight of rats: minimal influence on the body weight of rats

## COc1ccc(CC(=O)c2ccc3c(c2OC)C=CC(C)(C)O3)cc1OC [compound 54, 2-(3,4-Dimethoxyphenyl)-1-(5-methoxy-2,2-dimethyl-2H-chromen-6-yl)ethanone]
[1]; NCI-H1299, value repeated in text
  pIC50: 6.85
[12]
  migration of vascular endothelial cells: showed the inhibitory effect on the migration of vascular endothelial cells
[13]
  inhibitory effect on tube formation: greater than that of the control deguelin
[14]; human, 1 μM
  cell survival rate: approximately 80%

## COc1ccc([C@H](C)C(=O)c2ccc3c(c2OC)C=CC(C)(C)O3)cc1OC [compound 69, (S)-2-(3,4-Dimethoxyphenyl)-1-(5-methoxy-2,2-dimethyl-2H-chromen-6-yl)propan-1-one]
[2]
  proliferation of vascular endothelial cells: inhibited the proliferation of vascular endothelial cells dose-dependently
[12]
  migration of vascular endothelial cells: showed the inhibitory effect on the migration of vascular endothelial cells
[13]
  inhibitory effect on tube formation: greater than that of the control deguelin
[14]; human, 1 μM
  cell survival rate: approximately 80%

## COc1cc2c(cc1OC)[C@@H]1C(=O)c3ccc4c(c3O[C@@H]1CO2)C=CC(C)(C)O4 [deguelin, Deguelin, reference compound]
[14]; HBEC-1 and BEAS-2B, 1 μM of deguelin, MTT
  cell survival rate: approximately 60%
[11]; compared with control
  body weight of rats: significantly reduced
[15]
  toxicity in the rat brain: caused parkinsonism-like syndrome
